Laboratory results as given in US20070155806A1 (The University of Tokyo, priority 2005, published 2007).

Key:
Format in all cases: biochemical
luciferase (firefly) [1] = target: T1, luciferase (firefly) (Photinus pyralis, UniProt P08659); experiment: Luminescence characteristics with firefly luciferase (Example 3); conditions: for relative intensity: calculated on the basis of the intensity obtained for aminoluciferin; for λmax(nm): luminescence peak, HEPES pH 7.7, ATP, Mg, CoA; for λmax(nm) / initial intensity: 12 μmol/L substrate, 20 μg/mL luciferase; for initial intensity: luminescence, HEPES pH 7.7; for peak luminescence wavelength shift to longer wavelength side compared with luciferin: versus luciferin
T1 sequence (P08659 whole entry, species assumed): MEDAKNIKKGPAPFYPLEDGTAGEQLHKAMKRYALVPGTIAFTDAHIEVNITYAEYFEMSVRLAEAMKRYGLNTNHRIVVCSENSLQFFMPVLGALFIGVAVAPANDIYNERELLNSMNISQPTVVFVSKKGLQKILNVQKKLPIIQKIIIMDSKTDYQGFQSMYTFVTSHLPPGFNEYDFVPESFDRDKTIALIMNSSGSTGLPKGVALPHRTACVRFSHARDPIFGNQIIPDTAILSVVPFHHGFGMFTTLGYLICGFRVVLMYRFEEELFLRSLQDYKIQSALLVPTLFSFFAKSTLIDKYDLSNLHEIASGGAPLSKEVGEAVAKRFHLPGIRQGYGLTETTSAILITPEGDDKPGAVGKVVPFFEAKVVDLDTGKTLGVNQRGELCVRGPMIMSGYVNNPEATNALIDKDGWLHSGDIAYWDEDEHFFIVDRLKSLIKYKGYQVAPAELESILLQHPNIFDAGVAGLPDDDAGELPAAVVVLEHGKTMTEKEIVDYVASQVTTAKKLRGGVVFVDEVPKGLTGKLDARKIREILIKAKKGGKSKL
Procedure: The measurement was performed by using Fluorescence Spectrophotometer F-4500 (Hitachi).

luciferase (firefly) [2] = target: T1, luciferase (firefly); experiment: Measurement of luminescence after reaction with luciferase (Example 5, FIG. 2); conditions: 12 μmol/L substrate, 40 μg/mL luciferase
Procedure: Luminescence spectra of Compounds 19 and 20 were measured.

luciferase (firefly) [3] = target: T1, luciferase (firefly); experiment: HPLC analysis of luciferase reaction product with or without ATP (Example 6, FIG. 3); conditions: system added with ATP vs without ATP
Procedure: For 6-(4-aminophenethyl)-aminoluciferin (Compound 21), the enzymatic reaction was also performed in a system without ATP (all the other conditions were the same as Example 5), along with the aforementioned enzymatic reaction in Example 5. After these two enzymatic reactions, each enzymatic reaction mixture was collected and filtered by using a centrifugal separator to remove the enzyme. The solvent was evaporated by lyophilization to obtain a residue after the enzymatic reaction. A small amount of the residue was dissolved in purified water and methanol, then analyzed by HPLC. The results are shown in FIG. 3. • Analysis conditions • Elution solvent: A=H2O/0.1% trifluoroacetic acid, B=80% acetonitrile/20% • water/0.1% trifluoroacetic acid, A/B=80/20 to 20/80 (20 minutes) • Detection: UV-vis (400 nm) • Column: ODS-3, 4.6×250 mm • Flow rate: 1 mL/min

SMILES	relative intensity (luciferase (firefly) [1])	λmax(nm) (luciferase (firefly) [1])	initial intensity (luciferase (firefly) [1])	peak luminescence wavelength shift to longer wavelength side compared with luciferin (luciferase (firefly) [1]) [nm]	initial intensity (luciferase (firefly) [1]; listed as N-phenethylaminoluciferin)	luminescent property (luciferase (firefly) [2])	luminescence peak (luciferase (firefly) [2]; HEPES pH 7.7)	reaction as luciferase substrate (elution peak of compound after enzymatic reaction) (luciferase (firefly) [3])
CNc1ccc2nc(C3=NC(C(=O)O)CS3)sc2c1 (stereo not shown) [Compound 10, N-methylaminoluciferin]	66.5	624	1360	49				
CN(C)c1ccc2nc(C3=NC(C(=O)O)CS3)sc2c1 (stereo not shown) [Compound 11, N,N-dimethylaminoluciferin]	44.1	641	901	66				
O=C(O)C1CSC(c2nc3ccc(NCc4ccccc4)cc3s2)=N1 (stereo not shown) [Compound 12, N-benzylaminoluciferin]	5.2	623	106	48				
O=C(O)C1CSC(c2nc3ccc(NCCc4ccccc4)cc3s2)=N1 (stereo not shown) [Compound 13, N-phenethylaminoaminoluciferin]	8.6	611		36	175			
O=C(O)C1CSC(c2nc3ccc(NCCCc4ccccc4)cc3s2)=N1 (stereo not shown) [Compound 14, N-phenylpropylaminoluciferin]	48.0	611	980	36				
O=C(Nc1ccc(CCNc2ccc3nc(C4=NC(C(=O)O)CS4)sc3c2)cc1)OCc1ccccc1 (stereo not shown) [Compound 19, 6-(4′-benzyloxycarbonylamidophenethyl)-aminoluciferin]						luminescence was observed	about 610 nm	
Nc1ccc(CCNc2ccc3nc(C4=N[C@@H](C(=O)O)CS4)sc3c2)cc1 [Compound 21, 6-(4′-aminophenethyl)-aminoluciferin]						completely lost the luminescent property		reacted as a luciferase substrate
Nc1ccc2nc(C3=N[C@@H](C(=O)O)CS3)sc2c1 [aminoluciferin, reference compound]	100.0	609	2044	34				
